The target of data set [1] is T1, human glucocorticoid receptor (Homo sapiens, UniProt P04150).
T1 sequence (P04150 1-777): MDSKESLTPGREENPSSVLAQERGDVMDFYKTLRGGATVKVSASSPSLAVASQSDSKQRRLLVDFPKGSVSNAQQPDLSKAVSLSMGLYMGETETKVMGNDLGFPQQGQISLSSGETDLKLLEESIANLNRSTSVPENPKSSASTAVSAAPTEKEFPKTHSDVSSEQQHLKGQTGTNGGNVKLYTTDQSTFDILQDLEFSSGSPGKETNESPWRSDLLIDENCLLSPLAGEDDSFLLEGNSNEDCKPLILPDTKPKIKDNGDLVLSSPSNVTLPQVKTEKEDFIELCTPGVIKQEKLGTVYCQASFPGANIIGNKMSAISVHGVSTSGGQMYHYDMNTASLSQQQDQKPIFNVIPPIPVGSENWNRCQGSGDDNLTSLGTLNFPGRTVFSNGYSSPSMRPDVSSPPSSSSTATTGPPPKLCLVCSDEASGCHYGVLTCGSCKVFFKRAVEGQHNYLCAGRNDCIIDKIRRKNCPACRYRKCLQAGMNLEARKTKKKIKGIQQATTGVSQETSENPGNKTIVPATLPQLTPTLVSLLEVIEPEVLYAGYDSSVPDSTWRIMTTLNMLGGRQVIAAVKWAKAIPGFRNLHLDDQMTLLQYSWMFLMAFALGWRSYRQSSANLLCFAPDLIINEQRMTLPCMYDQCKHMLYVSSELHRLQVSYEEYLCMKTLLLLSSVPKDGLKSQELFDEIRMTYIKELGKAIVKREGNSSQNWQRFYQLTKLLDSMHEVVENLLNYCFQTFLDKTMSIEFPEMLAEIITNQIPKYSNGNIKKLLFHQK
The note with it: cited from earlier work.

The subject of data set [2] is HCV RNA-replicating cell line AVA5. Description: Primary in vitro anti-HCV screen, intracellular HCV RNA levels in AVA5 cells. The format is cell-based. The procedure:
(§1) The antiviral activity of test compounds are assayed in the stably HCV RNA-replicating cell line, AVA5, derived by transfection of the human hepatoblastoma cell line, Huh7 (Blight, et al., 2000, Sci. 290:1972). Compounds are added to dividing cultures once daily for three days (media is changed with each addition of compound). Cultures generally start the assay at 50% confluence and reach confluence during the last day of treatment. Intracellular HCV RNA levels and cytotoxicity are assessed 24 hours after the last dose of compound.
(§2) Assays are conducted using a single dose of test compound. Replicate cultures for HCV RNA levels (on 48-well plates) and triplicate cultures for cytoxicity (on 96-well plates) are used.
Intracellular HCV RNA levels are measured using standard blot hybridization (Korba & Gerin, 1992, Antivir. Res. 19:55) using triplicate cultures. HCV RNA levels in the treated cultures are expressed as a percentage of the mean levels of RNA detected in untreated cultures. Levels of β-actin RNA are used to normalize HCV RNA levels in each sample.

A short description of data set [3]: Cytotoxicity in the anti-HCV screen (AVA5 cultures). The format is cell-based, human. The note with it: human, AVA5 cells (stably HCV RNA-replicating, derived from Huh7); toxicity control, AVA5 cells, once daily for three days; read-out: approximate CC90. The procedure: as §1, §2
The subject of data set [4] is AVA5 cells (derived from human hepatoblastoma cell line Huh7). The data set is described as above. The format is cell-based. The note with it: 10 IU/ml. The method, then: as §1, §2

For `C[C@]12CCC(=O)C=C1CC[C@@H]1[C@@H]2[C@@H](O)C[C@@]2(C)[C@H]1CC[C@]2(O)C(=O)CO` [cortisol, reference compound], in data set [1], the “relative binding affinity to the human glucocorticoid receptor” value was 23%. For `NC(=O)c1ncn([C@@H]2O[C@H](CO)[C@@H](O)[C@H]2O)n1` [ribavirin, reference compound], the “antiviral activity at the CC90” value in data set [2] (100 μM) is “no antiviral activity”. Besides, the CC90 at 3 days in data set [3] was around 100 µM. Turning to α-interferon, in data set [2] (positive antiviral control, AVA5 cells, once daily for three days), the “approximate EC90” value is listed as around 10 IU/ml. In data set [4], the “cytotoxicity at the EC90” value is given as “no cytotoxicity”.

(Values after patent US20070259844A1, “Antiviral Compositions And Methods Of Using The Same” (VGX PHARMACEUTICALS, priority 2003, published 2007).)
